Measured values reported in ChEMBL document CHEMBL1137934, “Inhibition of monoamine oxidases by coumarin-3-acyl derivatives: biological activity and computational study” (Bioorg Med Chem Lett, 2004).

What was measured:
[1] = molecular target: Amine oxidase [flavin-containing] A (Bos taurus) (UniProt P21398)
[2] = molecular target: Amine oxidase [flavin-containing] B (Bos taurus) (UniProt P56560)
Sequence of Amine oxidase [flavin-containing] B (Bos taurus) (P56560 whole entry, looked up): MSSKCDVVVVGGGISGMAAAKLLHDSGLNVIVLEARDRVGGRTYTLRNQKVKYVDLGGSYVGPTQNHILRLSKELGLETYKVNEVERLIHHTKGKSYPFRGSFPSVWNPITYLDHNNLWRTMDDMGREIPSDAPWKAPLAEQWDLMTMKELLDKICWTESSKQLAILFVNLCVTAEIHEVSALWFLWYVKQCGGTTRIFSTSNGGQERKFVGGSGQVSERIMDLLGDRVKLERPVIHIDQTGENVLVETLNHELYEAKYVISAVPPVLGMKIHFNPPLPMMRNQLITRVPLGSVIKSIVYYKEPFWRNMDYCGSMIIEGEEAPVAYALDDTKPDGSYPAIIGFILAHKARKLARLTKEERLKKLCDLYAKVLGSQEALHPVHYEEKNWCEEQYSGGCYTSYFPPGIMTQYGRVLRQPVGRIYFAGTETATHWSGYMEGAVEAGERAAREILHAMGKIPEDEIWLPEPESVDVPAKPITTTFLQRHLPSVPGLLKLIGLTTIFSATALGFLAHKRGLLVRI

IC50 [1]: 501 nM
IC50 [2]: 1000 nM
SMILES: CCOC(=O)C1=Cc2cc(Cl)ccc2CC1=O
